Reference: patent US20240391862A1, “(1,4,5-TRISUBSTITUTED-1H-PYRAZOL-3-YL)OXY-2-ALKOXY ALKYL ACIDS AND THEIR DERIVATIVES, THEIR SALTS AND THEIR USE AS HERBICIDAL AGENTS” (Bayer AKtiengesellschaft, priority 2021, published 2024)

Assays:
[1] = tested on: DIGSA; test: Post-emergence herbicidal effect, greenhouse pot test; format: in vivo, Digitaria sanguinalis; details: visual rating about 3 weeks after treatment
Text: (§1) • ALOMY: Alopecurus myosuroides SETVI: Setaria viridis • AVEFA: Avena fatua POLCO: Fallopia convolvulus • AMARE: Amaranthus retroflexus ECHCG: Echinochloa crus-galli • LOLRJ: Lolium rigidum STEME: Stellaria media • VERPE: Veronica persica MATIN: Tripleurospermum inodorum • DIGSA: Digitaria sanguinalis ABUTH: Abutylon threophrasti • TRZAS: Triticum aestivum VIOTR: Viola tricolor • BRSNW: Brassica napus ZEAMX: Zea mays • PHBPU: Ipomoea purpurea GLXMA: Glycine max • ORYSA: Oryza sativa HORMU: Hordeum murinum
(§2) Seeds of monocotyledonous and dicotyledonous weeds and crop plants are placed in sandy loam in plastic or organic planting pots, covered with soil and cultivated in a greenhouse under controlled growth conditions. 2 to 3 weeks after sowing, the trial plants are treated at the one-leaf stage. The compounds of the invention, formulated in the form of wettable powders (WP) or as emulsion concentrates (EC), are then sprayed onto the green parts of the plants as aqueous suspension or emulsion with addition of 0.5% additive at a water application rate of 600 l/ha (converted). After the test plants have been kept in the greenhouse under optimum growth conditions for about 3 weeks, the activity of the preparations is rated visually in comparison to untreated controls. For example, 100% activity=the plants have died, 0% activity=like control plants.
(§3) Tables 20a to 38c below show the effects/crop compatibilities of selected compounds of the general formula (I) on various harmful plants at an application rate corresponding to 20 to 320 g/ha, which were obtained by the trial procedure specified above.

[2] = tested on: POLCO; test: as above; format: in vivo, Fallopia convolvulus; details: 320 g/ha; for pest or weed control at 320 g/ha: Fallopia convolvulus, 504 h, read-out: Post-emergence effect against POLCO in %
Text: as §1, §2, §3

[3] = tested on: ZEAMX; test: Post-emergence herbicidal effect and crop plant compatibility, greenhouse pot test; format: in vivo, Zea mays; details: 20 g/ha, one-leaf stage, rated visually after about 3 weeks vs untreated controls
Text: as §1, §2, §3

[4] = tested on: PHBPU; test: Post-emergence herbicidal effect, greenhouse pot test; format: in vivo, Ipomoea purpurea
Text: as §1, §2, §3

[5] = tested on: ALOMY; test: as above; format: in vivo, Alopecurus myosuroides; details: visual rating about 3 weeks after treatment
Text: as §1, §2, §3

[6] = tested on: KCHSC; test: as above; format: in vivo
Protocol: as §2, with “plants. Tables 20a to 38c below show the effects/crop compatibilities of selected compounds of the general formula (I) on various harmful plants at an application rate corresponding to 20 to 320 g/ha, which were obtained by the trial procedure specified above.” for “plants.”

[7] = tested on: VERPE; test: as above; format: in vivo, Veronica persica
Text: as §1, §2, §3

[8] = tested on: AVEFA; test: as above; format: in vivo, Avena fatua; details: visual rating about 3 weeks after treatment
Text: as §1, §2, §3

[9] = tested on: ECHCG; test: as above; format: in vivo, Echinochloa crus-galli
Text: as §1, §2, §3

[10] = tested on: VIOTR; test: as above; format: in vivo, Viola tricolor
Text: as §1, §2, §3

[11] = tested on: AMARE; test: as above; format: in vivo, Amaranthus retroflexus; details: visual rating about 3 weeks after treatment
Text: as §1, §2, §3

[12] = tested on: SETVI; test: as above; format: in vivo, Setaria viridis
Text: as §1, §2, §3

[13] = tested on: ABUTH; test: as above; format: in vivo, Abutilon theophrasti; details: visual rating about 3 weeks after treatment
Text: as §1, §2, §3

[14] = tested on: MATIN; test: as above; format: in vivo, Tripleurospermum inodorum
Text: as §1, §2, §3

[15] = tested on: LOLRI; test: as above; format: in vivo, Lolium rigidum; details: Lolium rigidum, 504 h, 320 g/ha, read-out: Post-emergence effect against LOLRI in %
Text: as §1, §2, §3

[16] = Tripleurospermum inodorum, 504 h, read-out: Post-emergence effect against MATIN in %
[17] = Ipomoea purpurea, 504 h, 80 g/ha, read-out: Post-emergence effect against PHBPU in %
[18] = Avena fatua, 504 h, read-out: Post-emergence effect against AVEFA
[19] = Echinochloa crus-galli, 504 h, 80 g/ha, read-out: Post-emergence effect against ECHCG in %
[20] = Viola tricolor, 504 h, read-out: Post-emergence effect against VIOTR in %
[21] = Viola tricolor, 504 h, 80 g/ha, read-out: Post-emergence effect against VIOTR in %
[22] = Amaranthus retroflexus, 504 h, read-out: Post-emergence effect against AMARE
[23] = Setaria viridis, 504 h, 80 g/ha, read-out: Post-emergence effect against SETVI in %

Structure (SMILES)	Post-emergence effect against DIGSA ([1]; 320 g/ha)	Post-emergence effect against PHBPU in % ([4]; 320 g/ha)	Post-emergence effect against ALOMY ([5]; 320 g/ha)	Post-emergence effect against VERPE in % ([7]; 80 g/ha)	Post-emergence effect against VERPE in % ([7]; 320 g/ha)	Post-emergence effect against AVEFA ([8]; 320 g/ha)	Post-emergence effect against ECHCG in % ([9]; 320 g/ha)	Post-emergence effect against VIOTR in % ([10]; 320 g/ha)	Post-emergence effect against AMARE ([11]; 320 g/ha)	Post-emergence effect against SETVI in % ([12]; 320 g/ha)	pest or weed control at 320 g/ha [2]	pest or weed control at 20 g/ha [14, 16]	pest or weed control at 80 g/ha [14, 16]	pest or weed control at 80 g/ha [4, 17]	pest or weed control at 80 g/ha [8, 18]	pest or weed control at 320 g/ha [15]	pest or weed control at 80 g/ha [9, 19]	pest or weed control at 20 g/ha [10, 20]	pest or weed control at 80 g/ha [10, 21]	pest or weed control at 80 g/ha [11, 22]	other results
COC(=O)CCOC(=O)C(OC)Oc1nn(-c2ncccc2F)c(-c2ccc(F)nc2)c1C1CC1 (single isomer, unassigned) [Example I-80]	90%	90%	90%	80%	90%	90%	90%	90%	80%	90%	–	–	–	–	–	–	–	–	–	–	Post-emergence effect against DIGSA ([1]; 80 g/ha): 80%; Post-emergence effect against POLCO in % [2]: 90%; Post-emergence effect at 20 g/ha against ZEAMX in % [3]: 20%; Post-emergence effect against PHBPU in % ([4]; 80 g/ha): 90%; Post-emergence effect against KCHSC in % ([6]; 20 g/ha): 90%; Post-emergence effect against KCHSC in % ([6]; 80 g/ha): 90%; Post-emergence effect against KCHSC in % ([6]; 320 g/ha): 90%; Post-emergence effect against ECHCG ([9]; 20 g/ha, visual rating about 3 weeks after treatment): 90%; Post-emergence effect against ECHCG in % ([9]; 80 g/ha): 90%; Post-emergence effect against VIOTR in % ([10]; 80 g/ha): 80%; Post-emergence effect against SETVI in % ([12]; 80 g/ha): 90%; Post-emergence effect against ABUTH ([13]; 80 g/ha): 80%; Post-emergence effect against ABUTH ([13]; 320 g/ha): 80%
CCOC(=O)C(OC)Oc1nn(-c2ccccc2F)c(-c2ccc(F)nc2)c1Br (centres unmarked) [Example I-23]	90%	90%	90%	90%	90%	80%	90%	80%	90%	90%	80%	80%	80%	80%	80%	90%	80%	80%	80%	80%	pest or weed control at 80 g/ha ([1]; Digitaria sanguinalis, 504 h, 80 g/ha, read-out: Post-emergence effect against DIGSA): 90%; Post-emergence effect against MATIN in % ([14]; 320 g/ha): 90%; pest or weed control at 80 g/ha ([5]; Alopecurus myosuroides, 504 h, 80 g/ha, read-out: Post-emergence effect against ALOMY): 90%; pest or weed control at 20 g/ha ([7]; Veronica persica, 504 h, 20 g/ha, read-out: Post-emergence effect against VERPE in %): 80%; pest or weed control at 20 g/ha ([9]; Echinochloa crus-galli, 504 h, 20 g/ha, visual rating about 3 weeks after treatment, read-out: Post-emergence effect against ECHCG): 80%; pest or weed control at 80 g/ha [12, 23]: 80%
COC(=O)C(OC)Oc1nn(-c2cc(F)ccc2F)c(-c2cncc(F)c2)c1Br (centres unmarked) [Example I-29]	–	–	–	–	–	–	–	–	–	–	80%	80%	90%	80%	90%	90%	80%	80%	90%	90%	pest or weed control at 320 g/ha ([1]; Digitaria sanguinalis, 504 h, 320 g/ha, read-out: Post-emergence effect against DIGSA): 80%; pest or weed control at 320 g/ha ([14]; Tripleurospermum inodorum, 504 h, 320 g/ha, read-out: Post-emergence effect against MATIN in %): 90%; pest or weed control at 20 g/ha ([4]; Ipomoea purpurea, 504 h, 20 g/ha, read-out: Post-emergence effect against PHBPU in %): 80%; pest or weed control at 320 g/ha ([4]; Ipomoea purpurea, 504 h, 320 g/ha, read-out: Post-emergence effect against PHBPU in %): 90%; pest or weed control at 320 g/ha ([5]; Alopecurus myosuroides, 504 h, 320 g/ha, read-out: Post-emergence effect against ALOMY): 90%; pest or weed control at 80 g/ha ([7]; Veronica persica, 504 h, 80 g/ha, read-out: Post-emergence effect against VERPE in %): 90%; pest or weed control at 320 g/ha ([7]; Veronica persica, 504 h, 320 g/ha, read-out: Post-emergence effect against VERPE in %): 90%; pest or weed control at 320 g/ha ([8]; Avena fatua, 504 h, 320 g/ha, read-out: Post-emergence effect against AVEFA): 90%; pest or weed control at 320 g/ha ([9]; Echinochloa crus-galli, 504 h, 320 g/ha, read-out: Post-emergence effect against ECHCG in %): 90%; pest or weed control at 320 g/ha ([10]; Viola tricolor, 504 h, 320 g/ha, read-out: Post-emergence effect against VIOTR in %): 90%; pest or weed control at 320 g/ha ([11]; Amaranthus retroflexus, 504 h, 320 g/ha, read-out: Post-emergence effect against AMARE): 90%; pest or weed control at 80 g/ha [12, 23]: 90%; pest or weed control at 320 g/ha ([12]; Setaria viridis, 504 h, 320 g/ha, read-out: Post-emergence effect against SETVI in %): 90%; pest or weed control at 80 g/ha ([13]; Abutilon theophrasti, 504 h, 80 g/ha, read-out: Post-emergence effect against ABUTH): 80%; pest or weed control at 320 g/ha ([13]; Abutilon theophrasti, 504 h, 320 g/ha, read-out: Post-emergence effect against ABUTH): 90%
